Results: article PMC5761851, “Application of a phenotypic drug discovery strategy to identify biological and chemical starting points for inhibition of TSLP production in lung epithelial cells” (PLoS ONE, 2018)

What was measured:
Assay in all cases: kinase selectivity panel
Type in all cases: biochemical
ALK = target: T1, ALK (Homo sapiens, UniProt Q9UM73); details: read-out: percentage of control activity (POC), ALK
T1 construct: purchased Eurofins Pharma Discovery Services (KinaseProfiler; Cerep BioPrint panel)
In short: (§1)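 First, 125 representative kinases were exposed to 10 μM compound in duplicate; next, selected activities were titrated over 9 concentrations in duplicate, and IC50 values were calculated.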

CDK7/cyclinH/MAT1 = target: T2, CDK7/cyclinH/MAT1 (Homo sapiens, UniProt P50613); details: read-out: percentage of control activity (POC), CDK7/cyclinH/MAT1
T2 construct: purchased Eurofins Pharma Discovery Services (KinaseProfiler; Cerep BioPrint panel)
In short: as §1

Mnk2 = target: T3, Mnk2 (Homo sapiens, UniProt Q9HBH9); details: read-out: percentage of control activity (POC), Mnk2
T3 construct: purchased Eurofins Pharma Discovery Services (KinaseProfiler; Cerep BioPrint panel)
T3 sequence (Q9HBH9 whole entry): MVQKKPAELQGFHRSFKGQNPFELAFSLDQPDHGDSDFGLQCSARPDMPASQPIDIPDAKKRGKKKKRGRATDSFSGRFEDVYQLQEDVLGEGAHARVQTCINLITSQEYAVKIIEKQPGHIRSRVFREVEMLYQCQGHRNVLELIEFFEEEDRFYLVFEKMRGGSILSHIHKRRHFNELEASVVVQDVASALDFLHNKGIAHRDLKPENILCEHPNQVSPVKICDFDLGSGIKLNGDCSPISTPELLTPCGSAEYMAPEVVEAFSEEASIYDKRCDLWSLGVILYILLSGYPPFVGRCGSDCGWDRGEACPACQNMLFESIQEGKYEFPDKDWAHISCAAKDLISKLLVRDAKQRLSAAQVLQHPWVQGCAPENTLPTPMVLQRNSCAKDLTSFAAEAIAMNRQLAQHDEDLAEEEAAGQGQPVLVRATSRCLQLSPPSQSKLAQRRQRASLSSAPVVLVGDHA
In short: as §1

CK1γ1 = target: T4, CK1γ1 (Homo sapiens, UniProt Q9HCP0); details: read-out: percentage of control activity (POC), CK1γ1
T4 construct: purchased Eurofins Pharma Discovery Services (KinaseProfiler; Cerep BioPrint panel)
In short: as §1

Lyn = target: T5, Lyn (Homo sapiens, UniProt P07948); details: read-out: percentage of control activity (POC), Lyn
T5 construct: purchased Eurofins Pharma Discovery Services (KinaseProfiler; Cerep BioPrint panel)
T5 sequence (P07948 whole entry): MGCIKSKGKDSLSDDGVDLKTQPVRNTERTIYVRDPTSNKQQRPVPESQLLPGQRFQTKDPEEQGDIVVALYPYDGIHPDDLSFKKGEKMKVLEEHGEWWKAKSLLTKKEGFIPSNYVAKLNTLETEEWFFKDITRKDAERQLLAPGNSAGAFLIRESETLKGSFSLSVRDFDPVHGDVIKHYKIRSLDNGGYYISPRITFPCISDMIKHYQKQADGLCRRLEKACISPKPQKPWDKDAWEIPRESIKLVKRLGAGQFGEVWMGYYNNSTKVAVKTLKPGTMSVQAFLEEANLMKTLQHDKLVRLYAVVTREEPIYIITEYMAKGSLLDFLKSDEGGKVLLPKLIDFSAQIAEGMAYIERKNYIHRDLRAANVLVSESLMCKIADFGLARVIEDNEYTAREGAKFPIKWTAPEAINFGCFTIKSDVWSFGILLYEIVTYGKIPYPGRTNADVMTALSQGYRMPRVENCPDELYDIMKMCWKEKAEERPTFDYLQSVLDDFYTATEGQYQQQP
In short: as §1

PI3K (p120g) = target: T6, PI3K (p120g) (Homo sapiens, UniProt P48736); details: for remaining activity at 10 µM: read-out: percentage of control activity (POC), PI3K (p120g)
T6 construct: Eurofins Pharma Discovery Services (contract assay service)
T6 sequence (P48736 whole entry): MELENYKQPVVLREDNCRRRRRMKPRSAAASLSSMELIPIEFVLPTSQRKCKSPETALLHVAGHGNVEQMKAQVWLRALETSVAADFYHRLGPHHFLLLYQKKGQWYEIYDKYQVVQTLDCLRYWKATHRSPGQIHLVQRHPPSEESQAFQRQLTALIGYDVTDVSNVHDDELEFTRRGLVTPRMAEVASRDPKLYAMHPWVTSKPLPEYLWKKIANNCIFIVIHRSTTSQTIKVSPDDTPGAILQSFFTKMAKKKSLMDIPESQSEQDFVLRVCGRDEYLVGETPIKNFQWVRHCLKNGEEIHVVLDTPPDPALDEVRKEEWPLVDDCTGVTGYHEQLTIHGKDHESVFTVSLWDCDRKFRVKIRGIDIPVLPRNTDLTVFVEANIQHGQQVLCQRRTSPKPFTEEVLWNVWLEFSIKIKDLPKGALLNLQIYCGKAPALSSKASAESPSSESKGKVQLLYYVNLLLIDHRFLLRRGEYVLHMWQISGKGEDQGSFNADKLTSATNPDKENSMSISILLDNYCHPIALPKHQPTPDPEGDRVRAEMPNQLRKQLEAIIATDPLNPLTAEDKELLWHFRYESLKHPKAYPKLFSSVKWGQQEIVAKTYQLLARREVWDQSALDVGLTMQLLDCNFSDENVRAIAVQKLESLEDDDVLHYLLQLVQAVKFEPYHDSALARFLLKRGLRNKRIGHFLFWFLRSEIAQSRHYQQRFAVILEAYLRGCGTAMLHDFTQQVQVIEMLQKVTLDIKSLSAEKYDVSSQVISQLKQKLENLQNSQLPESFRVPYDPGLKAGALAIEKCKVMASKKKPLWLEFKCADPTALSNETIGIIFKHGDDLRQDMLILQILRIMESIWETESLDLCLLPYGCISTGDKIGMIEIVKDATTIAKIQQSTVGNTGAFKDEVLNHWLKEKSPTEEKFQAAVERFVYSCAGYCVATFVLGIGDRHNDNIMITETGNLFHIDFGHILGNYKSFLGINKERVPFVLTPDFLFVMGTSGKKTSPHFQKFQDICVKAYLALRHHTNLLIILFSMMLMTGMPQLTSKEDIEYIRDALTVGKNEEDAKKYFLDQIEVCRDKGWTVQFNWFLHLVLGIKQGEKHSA
In short: as §1

Ret = target: T7, Ret (Homo sapiens, UniProt P07949); details: read-out: percentage of control activity (POC), Ret
T7 construct: purchased Eurofins Pharma Discovery Services (KinaseProfiler; Cerep BioPrint panel)
T7 sequence (P07949 29-1114): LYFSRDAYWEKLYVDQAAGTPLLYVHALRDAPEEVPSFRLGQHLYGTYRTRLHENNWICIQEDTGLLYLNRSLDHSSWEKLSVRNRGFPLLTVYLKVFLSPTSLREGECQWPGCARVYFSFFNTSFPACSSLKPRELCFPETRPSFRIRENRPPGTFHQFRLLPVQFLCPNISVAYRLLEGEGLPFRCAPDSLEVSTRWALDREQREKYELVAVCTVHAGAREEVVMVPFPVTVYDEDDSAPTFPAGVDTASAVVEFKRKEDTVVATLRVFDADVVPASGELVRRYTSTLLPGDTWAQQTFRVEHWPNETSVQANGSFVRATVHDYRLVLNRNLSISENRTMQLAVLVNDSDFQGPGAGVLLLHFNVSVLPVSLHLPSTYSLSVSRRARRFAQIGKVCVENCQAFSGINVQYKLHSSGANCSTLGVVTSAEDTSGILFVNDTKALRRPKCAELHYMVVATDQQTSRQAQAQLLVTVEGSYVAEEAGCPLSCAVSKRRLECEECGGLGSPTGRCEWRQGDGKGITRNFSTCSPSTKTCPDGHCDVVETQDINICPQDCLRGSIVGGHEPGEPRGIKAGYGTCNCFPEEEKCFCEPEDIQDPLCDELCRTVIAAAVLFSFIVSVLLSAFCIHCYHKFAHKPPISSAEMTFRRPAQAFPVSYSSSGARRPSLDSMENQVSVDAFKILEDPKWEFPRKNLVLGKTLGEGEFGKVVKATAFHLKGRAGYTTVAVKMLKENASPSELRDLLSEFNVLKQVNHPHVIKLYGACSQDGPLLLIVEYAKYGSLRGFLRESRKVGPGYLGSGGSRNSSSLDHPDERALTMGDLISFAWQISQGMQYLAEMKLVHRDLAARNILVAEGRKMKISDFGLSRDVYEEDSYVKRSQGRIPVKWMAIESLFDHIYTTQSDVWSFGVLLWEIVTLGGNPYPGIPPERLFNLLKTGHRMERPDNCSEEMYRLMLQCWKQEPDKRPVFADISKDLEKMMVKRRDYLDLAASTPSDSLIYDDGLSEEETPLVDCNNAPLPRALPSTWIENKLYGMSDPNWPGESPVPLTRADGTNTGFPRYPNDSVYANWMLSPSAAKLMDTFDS
In short: as §1

NLK = target: T8, NLK (Homo sapiens, UniProt Q9UBE8); details: read-out: percentage of control activity (POC), NLK
T8 construct: purchased Eurofins Pharma Discovery Services (KinaseProfiler; Cerep BioPrint panel)
T8 sequence (Q9UBE8 1-527): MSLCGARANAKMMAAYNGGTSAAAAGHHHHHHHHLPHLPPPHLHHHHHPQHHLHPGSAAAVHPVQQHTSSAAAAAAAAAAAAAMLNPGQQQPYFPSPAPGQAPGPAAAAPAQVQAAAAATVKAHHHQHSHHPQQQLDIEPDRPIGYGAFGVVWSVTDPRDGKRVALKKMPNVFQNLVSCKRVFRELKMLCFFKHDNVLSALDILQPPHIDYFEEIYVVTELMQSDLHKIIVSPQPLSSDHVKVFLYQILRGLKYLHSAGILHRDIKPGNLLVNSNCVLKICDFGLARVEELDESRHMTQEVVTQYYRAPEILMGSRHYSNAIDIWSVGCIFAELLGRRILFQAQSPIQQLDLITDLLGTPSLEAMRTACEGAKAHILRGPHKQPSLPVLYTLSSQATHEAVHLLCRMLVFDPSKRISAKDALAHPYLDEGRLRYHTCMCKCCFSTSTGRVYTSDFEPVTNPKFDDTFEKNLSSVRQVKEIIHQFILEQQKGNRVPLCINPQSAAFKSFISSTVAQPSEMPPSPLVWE
In short: as §1

JAK2 = target: T9, JAK2 (Homo sapiens, UniProt O60674); details: read-out: percentage of control activity (POC), JAK2
T9 construct: purchased Eurofins Pharma Discovery Services (KinaseProfiler; Cerep BioPrint panel)
T9 sequence (O60674 whole entry): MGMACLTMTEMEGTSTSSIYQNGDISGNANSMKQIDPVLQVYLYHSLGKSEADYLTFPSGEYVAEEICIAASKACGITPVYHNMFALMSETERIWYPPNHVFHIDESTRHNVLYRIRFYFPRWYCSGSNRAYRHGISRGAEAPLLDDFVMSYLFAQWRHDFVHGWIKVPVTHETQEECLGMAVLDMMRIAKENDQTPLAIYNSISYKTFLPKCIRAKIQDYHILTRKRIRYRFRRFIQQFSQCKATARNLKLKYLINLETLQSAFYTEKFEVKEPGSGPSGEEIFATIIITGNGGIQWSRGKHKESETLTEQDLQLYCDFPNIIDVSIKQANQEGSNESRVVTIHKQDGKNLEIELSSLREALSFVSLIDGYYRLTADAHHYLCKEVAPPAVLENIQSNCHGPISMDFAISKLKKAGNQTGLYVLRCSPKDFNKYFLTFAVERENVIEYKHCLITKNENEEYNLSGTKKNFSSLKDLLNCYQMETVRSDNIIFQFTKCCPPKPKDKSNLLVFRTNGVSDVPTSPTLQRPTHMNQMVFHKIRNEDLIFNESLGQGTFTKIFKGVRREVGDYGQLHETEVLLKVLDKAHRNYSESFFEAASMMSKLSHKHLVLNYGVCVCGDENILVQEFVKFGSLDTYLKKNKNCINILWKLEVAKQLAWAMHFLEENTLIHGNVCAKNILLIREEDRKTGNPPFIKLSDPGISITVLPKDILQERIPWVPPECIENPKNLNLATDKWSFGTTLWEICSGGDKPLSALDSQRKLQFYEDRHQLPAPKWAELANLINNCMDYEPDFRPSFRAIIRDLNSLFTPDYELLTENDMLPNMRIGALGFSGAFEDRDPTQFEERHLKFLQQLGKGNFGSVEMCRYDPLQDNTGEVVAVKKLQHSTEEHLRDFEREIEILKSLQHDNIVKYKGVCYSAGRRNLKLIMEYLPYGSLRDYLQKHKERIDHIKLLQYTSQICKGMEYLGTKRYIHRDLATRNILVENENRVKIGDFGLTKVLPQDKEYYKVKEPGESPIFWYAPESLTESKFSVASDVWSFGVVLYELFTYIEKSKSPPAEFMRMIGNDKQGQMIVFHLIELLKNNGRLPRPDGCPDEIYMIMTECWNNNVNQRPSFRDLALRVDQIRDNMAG
In short: as §1

MST1 = target: T10, MST1 (Homo sapiens, UniProt Q13043); details: read-out: percentage of control activity (POC), MST1
T10 construct: purchased Eurofins Pharma Discovery Services (KinaseProfiler; Cerep BioPrint panel)
T10 sequence (Q13043 1-487): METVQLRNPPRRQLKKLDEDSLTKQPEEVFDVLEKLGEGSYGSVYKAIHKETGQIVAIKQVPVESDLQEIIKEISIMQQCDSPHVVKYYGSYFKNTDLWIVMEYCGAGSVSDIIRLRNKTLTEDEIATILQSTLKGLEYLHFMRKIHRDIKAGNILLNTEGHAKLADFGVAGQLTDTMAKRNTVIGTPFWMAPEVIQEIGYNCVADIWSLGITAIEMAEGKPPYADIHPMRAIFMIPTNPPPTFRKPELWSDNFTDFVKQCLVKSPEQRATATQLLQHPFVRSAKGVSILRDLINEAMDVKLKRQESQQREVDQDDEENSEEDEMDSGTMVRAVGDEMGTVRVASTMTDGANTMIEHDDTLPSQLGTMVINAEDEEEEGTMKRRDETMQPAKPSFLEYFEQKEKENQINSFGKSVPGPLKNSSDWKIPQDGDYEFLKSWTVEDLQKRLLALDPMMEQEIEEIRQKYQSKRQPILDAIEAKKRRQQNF
In short: as §1

CaMKIIδ = target: T11, CaMKIIδ (Homo sapiens, UniProt Q13557); details: read-out: percentage of control activity (POC), CaMKIIδ
T11 construct: purchased Eurofins Pharma Discovery Services (KinaseProfiler; Cerep BioPrint panel)
T11 sequence (Q13557 whole entry): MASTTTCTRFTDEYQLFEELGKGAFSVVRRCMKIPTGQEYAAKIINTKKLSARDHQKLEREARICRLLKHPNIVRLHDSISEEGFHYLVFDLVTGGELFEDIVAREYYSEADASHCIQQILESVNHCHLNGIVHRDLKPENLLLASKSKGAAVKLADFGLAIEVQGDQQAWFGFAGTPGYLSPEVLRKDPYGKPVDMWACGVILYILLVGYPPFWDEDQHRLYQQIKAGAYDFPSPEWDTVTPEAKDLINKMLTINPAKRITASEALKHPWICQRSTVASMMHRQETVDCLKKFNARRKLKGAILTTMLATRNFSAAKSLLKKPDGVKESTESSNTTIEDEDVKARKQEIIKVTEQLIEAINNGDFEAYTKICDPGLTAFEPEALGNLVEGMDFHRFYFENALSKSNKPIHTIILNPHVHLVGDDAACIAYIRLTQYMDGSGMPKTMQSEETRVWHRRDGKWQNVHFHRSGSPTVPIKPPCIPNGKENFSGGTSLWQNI
In short: as §1

MuSK = target: T12, MuSK (Homo sapiens, UniProt O15146); details: read-out: percentage of control activity (POC), MuSK
T12 construct: purchased Eurofins Pharma Discovery Services (KinaseProfiler; Cerep BioPrint panel)
T12 sequence (O15146 24-869): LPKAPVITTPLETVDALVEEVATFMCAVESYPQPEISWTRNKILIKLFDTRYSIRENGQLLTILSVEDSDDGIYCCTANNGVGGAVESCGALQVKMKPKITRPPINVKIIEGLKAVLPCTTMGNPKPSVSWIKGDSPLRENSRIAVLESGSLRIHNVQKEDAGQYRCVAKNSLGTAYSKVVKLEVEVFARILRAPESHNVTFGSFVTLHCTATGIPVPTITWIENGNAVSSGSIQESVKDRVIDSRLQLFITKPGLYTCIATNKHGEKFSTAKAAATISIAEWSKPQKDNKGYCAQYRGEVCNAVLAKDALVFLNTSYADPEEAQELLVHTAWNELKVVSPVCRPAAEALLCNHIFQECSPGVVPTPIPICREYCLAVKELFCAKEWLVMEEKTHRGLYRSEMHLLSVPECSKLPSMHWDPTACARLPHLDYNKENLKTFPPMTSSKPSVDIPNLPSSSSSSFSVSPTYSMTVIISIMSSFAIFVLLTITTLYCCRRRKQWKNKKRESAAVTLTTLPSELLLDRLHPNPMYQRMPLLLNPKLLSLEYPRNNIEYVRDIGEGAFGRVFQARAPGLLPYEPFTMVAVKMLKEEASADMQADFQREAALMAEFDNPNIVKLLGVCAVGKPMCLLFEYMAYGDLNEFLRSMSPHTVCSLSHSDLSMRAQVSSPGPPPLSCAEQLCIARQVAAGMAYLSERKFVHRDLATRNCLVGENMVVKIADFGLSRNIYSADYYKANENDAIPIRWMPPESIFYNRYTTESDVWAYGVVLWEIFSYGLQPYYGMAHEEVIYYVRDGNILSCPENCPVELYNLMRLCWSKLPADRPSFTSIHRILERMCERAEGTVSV
In short: as §1

CC(C)(C)N1CCC(c2cc(-c3ccc(F)cc3Cl)c3cc[n+]([O-])c(-c4c(Cl)cccc4Cl)c3n2)CC1 [compound 2]
remaining activity at 10 µM (ALK): 89%
remaining activity at 10 µM (CDK7/cyclinH/MAT1): 115%
remaining activity at 10 µM (Mnk2): 100%
remaining activity at 10 µM (CK1γ1): 101%
remaining activity at 10 µM (Lyn): 104%
remaining activity at 10 µM (PI3K (p120g); 10 μM): 92%
remaining activity at 10 µM (Ret): 100%
remaining activity at 10 µM (NLK): 86%
remaining activity at 10 µM (JAK2): 105%
remaining activity at 10 µM (MST1): 103%
remaining activity at 10 µM (CaMKIIδ): 100%
remaining activity at 10 µM (MuSK): 110%

Cc1ccc(C(=O)NCC2CC2)cc1-c1ccc2c(c1)NC(=O)C21CCCC1 [compound 3]
remaining activity at 10 µM (ALK): 77%
remaining activity at 10 µM (CDK7/cyclinH/MAT1): 104%
remaining activity at 10 µM (Mnk2): 91%
remaining activity at 10 µM (CK1γ1): 98%
remaining activity at 10 µM (Lyn): 101%
remaining activity at 10 µM (PI3K (p120g); 10 μM): 85%
remaining activity at 10 µM (Ret): 89%
remaining activity at 10 µM (NLK): 99%
remaining activity at 10 µM (JAK2): 108%
remaining activity at 10 µM (MST1): 88%
remaining activity at 10 µM (CaMKIIδ): 103%
remaining activity at 10 µM (MuSK): 106%

Cn1cc(-c2cccc(-c3nc(C(=O)NC4C5CC6CC4CC(O)(C6)C5)c(N)nc3N)c2)cn1 (centres unmarked) [compound 4]
remaining activity at 10 µM (ALK): 64%
remaining activity at 10 µM (CDK7/cyclinH/MAT1): 95%
remaining activity at 10 µM (Mnk2): 86%
remaining activity at 10 µM (CK1γ1): 89%
remaining activity at 10 µM (Lyn): 66%
inhibition at 10 µM (PI3K (p120g); 10 μM, read-out: inhibition of PI3K (p120γ)): 67%
remaining activity at 10 µM (PI3K (p120g); 10 μM): 33%
IC50 (PI3K (p120g); biochemical dose response, duplicate, read-out: Inhibition of indicated activity (IC50, μM): PI3K (p120γ)): 4.78 µM
remaining activity at 10 µM (Ret): 63%
remaining activity at 10 µM (NLK): 85%
remaining activity at 10 µM (JAK2): 88%
remaining activity at 10 µM (MST1): 58%
remaining activity at 10 µM (CaMKIIδ): 93%
remaining activity at 10 µM (MuSK): 101%

CS(=O)(=O)N1CCN(c2ccc(Nc3ncc(C(N)=O)c(NC4CC4)n3)cc2)CC1 [compound 5]
remaining activity at 10 µM (ALK): 62%
remaining activity at 10 µM (CDK7/cyclinH/MAT1): 71%
remaining activity at 10 µM (Mnk2): 84%
remaining activity at 10 µM (CK1γ1): 25%
remaining activity at 10 µM (Lyn): 5%
remaining activity at 10 µM (PI3K (p120g); 10 μM): 86%
remaining activity at 10 µM (Ret): -1%
remaining activity at 10 µM (NLK): 83%
remaining activity at 10 µM (JAK2): -3%
remaining activity at 10 µM (MST1): -1%
remaining activity at 10 µM (CaMKIIδ): 27%
remaining activity at 10 µM (MuSK): 60%

COc1c(NC(=O)c2ccc(C)c(-c3nnc4c(NCC(C)(C)C)nccn34)c2)cc(C(C)(C)C)cc1NS(C)(=O)=O [compound 7, reference compound]
remaining activity at 10 µM (ALK): 146%
remaining activity at 10 µM (CDK7/cyclinH/MAT1): 101%
remaining activity at 10 µM (Mnk2): 98%
remaining activity at 10 µM (CK1γ1): 98%
remaining activity at 10 µM (Lyn): 66%
remaining activity at 10 µM (PI3K (p120g); 10 μM): 86%
remaining activity at 10 µM (Ret): 71%
remaining activity at 10 µM (NLK): 94%
remaining activity at 10 µM (JAK2): 104%
remaining activity at 10 µM (MST1): 101%
remaining activity at 10 µM (CaMKIIδ): 96%
remaining activity at 10 µM (MuSK): 104%
